Consider 26 compounds from ChEMBL document CHEMBL4004852, “Pharmacophore Mapping of Thienopyrimidine-Based Monophosphonate (ThP-MP) Inhibitors of the Human Farnesyl Pyrophosphate Synthase” (J Med Chem, 2017).

Some results are limits rather than exact numbers.

In this experiment the target is T1, Farnesyl pyrophosphate synthase (Homo sapiens, UniProt P14324).
T1 sequence (P14324 whole entry): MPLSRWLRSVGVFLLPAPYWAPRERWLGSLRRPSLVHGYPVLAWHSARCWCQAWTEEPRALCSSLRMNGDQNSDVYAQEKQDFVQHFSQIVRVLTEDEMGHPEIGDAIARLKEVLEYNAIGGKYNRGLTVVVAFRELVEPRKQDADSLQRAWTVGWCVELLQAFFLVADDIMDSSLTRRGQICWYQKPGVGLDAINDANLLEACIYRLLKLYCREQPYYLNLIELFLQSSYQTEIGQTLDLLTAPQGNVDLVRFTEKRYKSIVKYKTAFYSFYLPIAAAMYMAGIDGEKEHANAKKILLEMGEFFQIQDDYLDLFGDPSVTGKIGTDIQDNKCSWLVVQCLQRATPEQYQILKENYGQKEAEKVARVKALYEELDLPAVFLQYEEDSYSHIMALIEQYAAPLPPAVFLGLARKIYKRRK
Briefly: Inhibition of N-terminal His-tagged human recombinant FPPS expressed in Escherichia coli BL21 (DE3) using GPP and [3H]-IPP as substrate preincubated for 10 mins before substrate addition measured after 8 mins by liquid scintillation counting.

One may read the IC50 as the concentration that gives 50% inhibition. With `Cc1ccc(-c2cc3c(NC(CC4CCCCC4)P(=O)(O)O)ncnc3s2)cc1` (stereo unspecified), the IC50 came out at 1600 nM.

Turning to `Cc1ccc(-c2cc3c(NC(c4ccccc4)P(=O)(O)O)ncnc3s2)cc1` (stereo unspecified), the concentration for half-maximal inhibition (IC50) was 4800 nM.

Consider `Cc1ccc(-c2cc3c(NC(c4ccccc4)P(=O)(O)O)ncnc3s2)cc1Cl` (stereo unspecified), for which the half-inhibitory concentration (IC50) was determined as 1600 nM.

Turning to `Cc1ccc(-c2sc3ncnc(NC(Cc4ccccc4)P(=O)(O)O)c3c2C)cc1` (stereo unspecified), the IC50 was 2600 nM.

For `COc1cc(C)c(F)cc1-c1cc2c(NC(Cc3ccccc3)P(=O)(O)O)ncnc2s1` (stereo unspecified), the IC50 is 1600 nM.

For `Cc1ccc(-c2sc3ncncc3c2CP(=O)(O)O)cc1`, the IC50 was ≥ 100000 nM.

As for `COc1cc(C)c(F)cc1-c1cc2c(NCP(=O)(O)O)ncnc2s1`, the IC50 stood at 4600 nM.

Regarding `Cc1ccc(-c2cc3c(NC(Cc4ccccc4)P(=O)(O)O)ncnc3s2)cc1Cl` (stereo unspecified), the half-inhibitory concentration (IC50) came out at 2300 nM.

Consider `Cc1ccc(-c2cc3c(NC(c4ccc5c(c4)CCO5)P(=O)(O)O)ncnc3s2)cc1` (stereo unspecified), for which the IC50 was 3000 nM.

As for `Cc1ccc(-c2cc3c(NC(Cc4ccccc4)P(=O)(O)O)ncnc3s2)cc1` (stereo unspecified), the IC50 came to 1400 nM.

In the case of `COc1cc(C)c(F)cc1-c1cc2c(NC(Cc3cccc(F)c3)P(=O)(O)O)ncnc2s1` (stereo unspecified), the concentration for half-maximal inhibition (IC50) amounted to 870 nM.

For the compound `COc1ccc(F)cc1-c1cc2c(NC(Cc3cccc(F)c3)P(=O)(O)O)ncnc2s1` (stereo unspecified), the half-maximal inhibitory concentration (IC50) came out at 1000 nM.

In the case of `Cc1ccc(-c2cc3c(NC(Cc4cccc(F)c4)P(=O)(O)O)ncnc3s2)cc1Cl` (stereo unspecified), the IC50 is 860 nM.

`Cc1ccc(-c2cc3c(NC(CC4CCC4)P(=O)(O)O)ncnc3s2)cc1` (stereo unspecified): the 50% inhibitory concentration (IC50) came to 2800 nM.

Regarding `Cc1ccc(-c2cc3c(N[C@H](Cc4ccccc4)P(=O)(O)O)ncnc3s2)cc1`, the IC50 is 1000 nM.

For `COc1cc(C)c(Cl)cc1-c1cc2c(NC(Cc3ccccc3)P(=O)(O)O)ncnc2s1` (stereo unspecified), the concentration for half-maximal inhibition (IC50) came to 4600 nM.

Turning to `Cc1ccc(-c2sc3ncnc4c3c2COP(=O)(O)CCC4)cc1`, the concentration for half-maximal inhibition (IC50) was ≥ 100000 nM.

With `Cc1ccc(-c2cc3c(NCP(=O)(O)O)ncnc3s2)cc1`, the IC50 was 5000 nM.

On to `Cc1ccc(-c2sc3ncnc(NCP(=O)(O)O)c3c2C)cc1`, for which the 50% inhibitory concentration (IC50) stood at 10000 nM.

Take `Cc1ccc(-c2cc3c(N[C@@H](Cc4ccccc4)C(=O)NP(=O)(O)O)ncnc3s2)cc1`: the 50% inhibitory concentration (IC50) stood at 3700 nM.

`COc1cc(C)c(Cl)cc1-c1cc2c(NCP(=O)(O)O)ncnc2s1`: the half-maximal inhibitory concentration (IC50) came to 8800 nM.

As for `Cc1ccc(-c2cc3c(NC(Cc4cccc(F)c4)P(=O)(O)O)ncnc3s2)cc1F` (stereo unspecified), the half-maximal inhibitory concentration (IC50) was found to be 1500 nM.

In the case of `O=P(O)(O)CNc1ncnc2sccc12`, the concentration for half-maximal inhibition (IC50) was > 100000 nM.

For the compound `Cc1ccc(-c2cc3c(NC(Cc4cccc(F)c4)P(=O)(O)O)ncnc3s2)cc1` (stereo unspecified), the IC50 worked out at 1100 nM.

As for `Cc1ccc(-c2cc3c(N[C@@H](Cc4ccccc4)P(=O)(O)O)ncnc3s2)cc1`, the IC50 was determined as 4000 nM.

Turning to `COc1cc(C)c(Cl)cc1-c1cc2c(NC(c3ccccc3)P(=O)(O)O)ncnc2s1` (stereo unspecified), the 50% inhibitory concentration (IC50) came out at 8400 nM.
